For one assay, the system named is F. graminearum PH-1. The assay is classed as cell-based, Fusarium graminearum.
In assay [1] the test system is F. graminearum conidia and hyphae. It is filed as cell-based, Fusarium graminearum.

Like-named read-outs stand apart in the source and are kept apart here.

Take GRCRGFRRRCFCTTHC [GMA4-C]: in the assay on F. graminearum PH-1, the “IC100: amount of protein required to inhibit F. graminearum conidial germination completely” value is recorded as under 6 µM.
On the same count and under the same terms, to “RTCENLADKYRGPCFSGCDTHCTTKENAVSGRCRDDFRCWCTKRC [MsDef1, reference compound]” belongs over 6 µM.
Turning to TAM-GRCAAAARRCFCTTHC [TMR-GMA4-CM], in assay [1], the “binding to the surface of fungal hyphae” value is “failed to bind” and the “entry into fungal cells” value was “no indication of entry into fungal cells”. Further, the “IC100: amount of protein required to inhibit F. graminearum conidial germination completely” value with F. graminearum PH-1 was over 96 µM. Besides, in the assay with F. graminearum PH-1 (96 µM), the antifungal activity result is “no antifungal activity”. Moreover, the “antifungal activity compared with TMR-GMA4-C” value in the assay with F. graminearum PH-1 (16 h) is “significantly lower antifungal activity”.
Turning to TAM-GRCRGFRRRCFCTTHC [TMR-GMA4-C], the “entry into fungal cells” value in assay [1] is “entered the cytoplasm”. In the assay with F. graminearum PH-1, the “IC100: amount of protein required to inhibit F. graminearum conidial germination completely” value worked out at 48 µM and the “antifungal activity of labeled compared with untagged/unlabeled protein or peptide” value is given as “considerably less antifungal activity”. The antifungal activity result in the assay with F. graminearum PH-1 (24 µM) is “significant growth inhibition”.

For the origin of these results see article PMC3853197 (PLoS ONE, 2013).
